Earlier results, collected in patent US20140296155A1, “ANTI-STRETCH MARK SKIN CREAM AND METHOD FOR MAKING AND USING THEREOF” (priority 2011, published 2014).

Test system: Type 1 and Type 3 collagen

**Q.** With `O=C1O[C@H]([C@@H](O)CO)C(O)=C1O` [Vitamin C, Ascorbic Acid] as the compound, how does the “collagen formation over control levels” value read?
**A.** 3-4 fold
